Assays:
[1] = test system: disease animal model of fibromyalgia; assay: Antagonism by 5-HT2C receptor antagonist SB242084 of the action of lorcaserin on reserpine-lowered muscle tenderness threshold; assay type: in vivo, Sprague-Dawley rats
Procedure: Thirty male Sprague-Dawley rats (Japan SLC) were used. […] The other 6 rats were not administered with reserpine and provided for the experiment as a healthy control. The drug efficacy was evaluated 5 days after the final administration of reserpine.
Twenty four reserpine-administered rats were divided into four groups (n=6/group), and the drug was administered to the respective groups in the following manner.
Group 1: 10% β cyclodextrin (vehicle of SB242084)+distilled water (vehicle of lorcaserin)
Group 2: 10% β cyclodextrin+lorcaserin at 3 mg/kg
Group 3: SB242084 at 0.1 mg/kg+lorcaserin at 3 mg/kg
Group 4: SB242084 at 1 mg/kg+lorcaserin at 3 mg/kg SB242084 or the vehicle thereof was administered by intraperitoneal administration, and lorcaserin or the vehicle thereof was orally administered. […] The muscle tenderness threshold was measured 60 minutes after lorcaserin or the vehicle thereof was administered. For the 6 healthy rats, only the muscle tenderness threshold was measured without administering the drug.
All measured values were indicated as an average±standard error. […] A significance level (P) less than 5% was determined as statistical significance (P<0.001 was indicated as ### in the drawing). […] A significance level (P) less than 5% was determined as statistical significance (P<0.001 was indicated as *** in the drawing).

[2] = test system: disease animal model of fibromyalgia; assay: Effect of test drug on lowering of muscle tenderness threshold induced by repeated reserpine administration; assay type: in vivo, Sprague-Dawley rats; conditions: for effect on the lowering of the muscle tenderness threshold induced by reserpine: male rats; for statistical significance of the effect on muscle tenderness threshold vs vehicle: two way ANOVA and Bonferroni
Procedure: (§1) The muscle tenderness threshold was measured according to the method of Schafers et al (Schafers M et al, Pain, 104, 579-588, 2003). A pressure stimulus gradually increasing up to 250 g was applied to the gastrocnemius of the right rear foot of the rat. […] The measurement was performed for three times for each point in time, and the average thereof was taken as a measured value. The cutaneous nociception threshold was measured according to the method of Chaplan et al (Chaplan et al., J Neurosci Methods, 53, 55-63, 1994). The measurement was performed using a series of von Frey filaments differing in thickness, which made it possible to apply a constant pressure. The rats were adapted to a cage for measurement having a wire mesh bottom, and then von Frey filaments (0.42 g, 0.74 g, 1.2 g, 2.1 g, 3.5 g, 6.0 g, 9.3 g, and 15.8 g) were applied to the plantar surface of a right rear foot of the rat until the withdrawal response was caused in the right rear foot or until 6 seconds elapsed without the response. The von Frey filament was applied using an up and down method. That is, a filament having about a medium thickness was applied initially, and when the withdrawal response was observed, a filament having a thickness which is one level lower than the initial filament was applied, and when the response was not observed, a filament having a thickness which is one level higher than the initial filament was applied. The cutaneous nociception threshold at the respective points in time was calculated as a threshold (g) of a foot withdrawal response by using a calculation formula reported by Chaplan et al (Chaplan et al. described above). The influence of reserpine on the muscle tenderness threshold and the threshold of cutaneous nociception was examined according to the following protocol. 24 rats were used for male and female rats respectively. The muscle tenderness threshold and the cutaneous nociception threshold before the reserpine administration (base line) were measured, and then the rats were assigned to any of a vehicle (0.5% aqueous acetic acid) group, a 0.1 mg/kg reserpine group, a 0.3 mg/kg group, and a 1 mg/kg group based on the dose of reserpine (6 rats per group). A vehicle or reserpine was subcutaneously administered to the back of rats of the respective groups once a day for three days. The volume of the vehicle or reserpine was set to 1 ml per a weight of a rat of 1 kg for all groups. On the first, third, fifth, seventh, tenth, fourteenth, and twenty-first days after the final administration of the vehicle or reserpine, the muscle tenderness threshold and the cutaneous nociception threshold were measured for the respective rats.
Male Sprague-Dawley rats (Japan SLC, Hamamatsu, Japan) were used. Thirty rats were used for each drug. As shown in Reference Example 1, reserpine was repeatedly administered at 1 mg/kg once a day for 3 days for 24 rats, thereby causing the lowering of the muscle tenderness threshold and the cutaneous nociception threshold. The other 6 rats were not administered with reserpine and provided for the experiment as a healthy control.
The drug efficacy was evaluated 5 days after the final administration of reserpine for all groups.
In evaluating the respective test drugs (5-HT2C receptor agonists), the muscle tenderness threshold of the rats (24 reserpine-administered rats and 6 healthy rats) before the administration of the test drug was initially measured. The 24 reserpine-administered rats were assigned to 4 groups according to the dose of the test drug. For YM348 or a vehicle thereof, the muscle tenderness threshold was measured 30, 60, and 120 minutes after the administration. For lorcaserin or a vehicle thereof, the muscle tenderness threshold was measured 60, 120, and 240 minutes after the administration. For vabicaserin or a vehicle thereof, the muscle tenderness threshold was measured 30, 60, 120, and 240 minutes after the administration. […]

[3] = test system: disease animal model of fibromyalgia; assay: Effect of drug on reserpine-induced lowering of cutaneous nociception threshold; assay type: in vivo, Sprague-Dawley rats; conditions: 5 days after final reserpine; up to a dose of 10 mg/kg
Procedure: The cutaneous nociception threshold was measured according to the method of Chaplan et al (Chaplan et al., J Neurosci Methods, 53, 55-63, 1994). The measurement was performed using a series of von Frey filaments differing in thickness, which made it possible to apply a constant pressure. The rats were adapted to a cage for measurement having a wire mesh bottom, and then von Frey filaments (0.42 g, 0.74 g, 1.2 g, 2.1 g, 3.5 g, 6.0 g, 9.3 g, and 15.8 g) were applied to the plantar surface of a right rear foot of the rat until the withdrawal response was caused in the right rear foot or until 6 seconds elapsed without the response. The von Frey filament was applied using an up and down method. […] The cutaneous nociception threshold at the respective points in time was calculated as a threshold (g) of a foot withdrawal response by using a calculation formula reported by Chaplan et al (Chaplan et al. described above).
In addition, 5 days after the final administration of reserpine, the effect of diclofenac which is a non-steroidal anti-inflammatory drug on the reserpine-induced lowering of the muscle tenderness threshold and the lowering of cutaneous nociception threshold was measured.

[4] = test system: patients with fibromyalgia; conditions: cited from earlier work; for score of pain symptoms of patients with fibromyalgia compared to a placebo group: Non-Patent Documents 7 to 9; for effectiveness for treating patients with fibromyalgia: literature (Yunus 1989; Goldenberg 1986)
Male Sprague-Dawley rats = assay: Forced swimming test after repeated reserpine administration (immobility time); assay type: in vivo; conditions: 1 mg/kg s.c. once a day for 3 days
Procedure: Male Sprague-Dawley rats (7-week old, Japan SLC, Hamamatsu, Japan) were used as animals. A forced swimming test was performed by modifying the method of Porsolt (1977) et al in the following manner. Soft wires including a magnet (a diameter of 1 mm and a length of 3 mm) were mounted on both the forelimbs of the animal, and the animals were caused to swim one by one in a cylindrical plastic water tank (a diameter of 20 cm and a height of 45 cm) filled with water (24±1° C.) up to 30 cm depth. […] Each forced swimming test includes a pretest session (15 minutes of swimming) and a test session (5 minutes of swimming) 24 hours after the pretest session, and the immobility time was measured in the test session. […] All of the measured values were indicated as an average±standard error. The statistical significant difference in the measured value at the respective test schedules between the reserpine-administered group and the vehicle-administered group was verified by a Student's t-test. A significance level (P) less than 5% was determined as statistical significance (P<0.05 was indicated as * in the drawings).

[5] = test system: Male and female Sprague-Dawley rats; assay: Influence of repeated reserpine administration on muscle tenderness threshold; assay type: in vivo; conditions: for time after final administration for which muscle tenderness threshold was statistically significantly lower than vehicle: 1 mg/kg group
Procedure: (§2) Male and female Sprague-Dawley rats (Japan SLC, Hamamatsu, Japan) were used.
as §1, with “The influence of reserpine on the muscle tenderness threshold and the threshold of cutaneous nociception was examined according to the following protocol. 24 rats were used for male and female rats respectively.” left out, “A vehicle or reserpine was subcutaneously administered to the back of rats of the respective groups once a day for three days. The volume of the vehicle or reserpine was set to 1 ml per a weight of a rat of 1 kg for all groups.” left out
(§3) All measured values were indicated as an average±standard error. The statistical significant difference in the measured value at the respective points in time between the reserpine-administered group and the vehicle-administered group was verified by two way ANOVA and a Bonferroni method. A significance level (P) less than 5% was determined as statistical significance (P<0.05 was indicated as * in the drawings).

[6] = test system: Male and female Sprague-Dawley rats; assay: Influence of repeated reserpine administration on cutaneous nociception threshold (von Frey); assay type: in vivo; conditions: for time after final administration for which cutaneous nociception threshold was statistically significantly lower than vehicle: 1 mg/kg group
Procedure: as §2
as §1, with “The influence of reserpine on the muscle tenderness threshold and the threshold of cutaneous nociception was examined according to the following protocol. 24 rats were used for male and female rats respectively.” left out, “A vehicle or reserpine was subcutaneously administered to the back of rats of the respective groups once a day for three days. The volume of the vehicle or reserpine was set to 1 ml per a weight of a rat of 1 kg for all groups.” left out
as §3

[7] = 0.1, 0.3, 1 mg/kg s.c. once a day for three days, male and female rats, two way ANOVA

For Cc1cc2c(cc1Cl)N(C(=O)Nc1ccc(Oc3cccnc3C)nc1)CC2 [SB242084], the “antagonistic action against the action of lorcaserin on muscle tenderness threshold” value ([1]; SB242084 0.1 and 1 mg/kg i.p. 15 min before lorcaserin 3 mg/kg oral, 60 min, Dunnett's test) was “statistically significant antagonistic action in a dose dependent manner”.

For CCc1cc2c(ccc3cnn(C[C@H](C)N)c32)o1 [YM348, (S)-2-(7-ethyl-1H-furo[2,3-g]indazol-1-yl)-1-methylethylamine], the “effect on the lowering of the muscle tenderness threshold induced by reserpine” value ([2]; 5 days after final reserpine (1 mg/kg s.c. x3 days), oral 0.03, 0.1, 0.3 mg/kg, 30, 60, 120 min after administration) was “restored the lowering of the muscle tenderness threshold induced by reserpine in a dose dependent manner” and the “statistical significance of the effect on muscle tenderness threshold vs vehicle” value (from here on “statistical significance … vs vehicle”) ([2]; oral, at a dose of 0.1 mg/kg or 0.3 mg/kg) was “statistically significant”.

With O=C(O)Cc1ccccc1Nc1c(Cl)cccc1Cl [diclofenac] the “effect on the reserpine-induced lowering of cutaneous nociception threshold” value [3] was “not restored” and the “effect on the reserpine-induced lowering of the muscle tenderness threshold” value ([2]; 5 days after final reserpine, up to a dose of 10 mg/kg) was “not restored”.

In the case of CNCC[C@H](Oc1cccc2ccccc12)c1cccs1 [duloxetine], the “score of pain symptoms of patients with fibromyalgia compared to a placebo group” value [4] is listed as “statistically significantly reduces the score of pain symptoms”.

For CC(C)Cc1ccc(C(C)C(=O)O)cc1 (stereo not drawn) [ibuprofen], the “effectiveness for treating patients with fibromyalgia” value [4] is listed as “not significantly effective”.

For C[C@H]1CNCCc2ccc(Cl)cc21.Cl [lorcaserin, (1R)-8-chloro-1-methyl-2,3,4,5-tetrahydro-1H-3-benzazepine], the “effect on the lowering of the muscle tenderness threshold induced by reserpine vs vehicle group (v+v)” value ([1]; lorcaserin 3 mg/kg oral + 10% β cyclodextrin i.p., 60 min after administration, Student's t-test) was “statistically significantly restored the lowering of the muscle tenderness threshold induced by reserpine”, the “effect on the lowering of the muscle tenderness threshold induced by reserpine” value ([2]; 5 days after final reserpine, oral 0.3, 1, 3 mg/kg, 60, 120, 240 min after administration) was “restored the lowering of the muscle tenderness threshold induced by reserpine in a dose dependent manner” and the “statistical significance … vs vehicle” value ([2]; oral, at a dose of 1 mg/kg or 3 mg/kg) was “statistically significant”.

In the case of COc1ccc2cc([C@H](C)C(=O)O)ccc2c1 [naproxen], the “effectiveness for treating patients with fibromyalgia” value [4] is given as “not significantly effective”.

For CC(C)C[C@H](CN)CC(=O)O [pregabalin], the “score of pain symptoms of patients with fibromyalgia compared to a placebo group” value [4] is given as “statistically significantly reduces the score of pain symptoms”.

With COC(=O)[C@H]1[C@H]2C[C@@H]3c4[nH]c5cc(OC)ccc5c4CCN3C[C@H]2C[C@@H](OC(=O)c2cc(OC)c(OC)c(OC)c2)[C@@H]1OC [reserpine] the “increase in the immobility time in forced swimming test” value (Male Sprague-Dawley rats; first day after final administration (P=0.625)) was “not confirmed”, the “increase in the immobility time in forced swimming test” value (Male Sprague-Dawley rats; third, fifth, seventh and fourteenth days after final administration (P=0.0007, 0.004, <0.0001, 0.0008)) was “significant increase in the immobility time” and the “time after final administration for which muscle tenderness threshold was statistically significantly lower than vehicle” value ([5]; female rats) was 7 days. For the same compound, the “time after final administration for which muscle tenderness threshold was statistically significantly lower than vehicle” value ([5]; male rats) was 10 days, the “influence on muscle tenderness threshold” value ([5]; 1 mg/kg reserpine group) was “markedly lowered” and the “influence on muscle tenderness threshold” value [5, 7] was “significantly lowered the muscle tenderness threshold”. For the same compound, the “time after final administration for which cutaneous nociception threshold was statistically significantly lower than vehicle” value ([6]; female rats) was 14 days, the “time after final administration for which cutaneous nociception threshold was statistically significantly lower than vehicle” value ([6]; male rats) was 21 days and the “influence on cutaneous nociception threshold” value ([6]; 1 mg/kg reserpine group) was “markedly lowered”. For the same compound, the “influence on cutaneous nociception threshold” value [6, 7] was “significantly lowered the cutaneous nociception threshold”.

For Cl.c1cc2c3c(c1)[C@H]1CCC[C@H]1CN3CCNC2 [vabicaserin, (−)-(9aR,12aS)-4,5,6,7,9,9a,10,11,12,12a-decahydrocyclopenta[c][1,4]diazepino[6,7,1-ij]quinoline], the “statistical significance … vs vehicle” value ([2]; dorsal subcutaneous, at a dose of 1 mg/kg or 3 mg/kg) was “statistically significant” and the “effect on the lowering of the muscle tenderness threshold induced by reserpine” value ([2]; 5 days after final reserpine, dorsal subcutaneous 0.3, 1, 3 mg/kg, 30, 60, 120, 240 min after administration) was “restored the lowering of the muscle tenderness threshold induced by reserpine in a dose dependent manner”.
